The values that follow come from patent US5733890A, “Adenylate analogs as potent anti-herpes virus agents” (National Science Council, priority 1996, dated 1998).

Series [1] has as its system varicella-zoster virus (VZV). The experiment in a line: Inhibition of cytopathogenicity of VZV in Hela cell culture. In kind it is cell-based. Conditions: for IC50: read-out: IC50 VZV (YS). On the procedure:
(§1) We tested the synthesized compounds for their inhibition of cytopathogenicity of herpes simplex type 1 virus (HSV-1), herpes simplex type 2 virus (HSV-2), and varicella-zoster virus (VZV) in Hela cell culture. These compounds include VI, 12, 13, 40, 42, a mixture of VI and 13 (1:1), ara-A 37, and a mixture of 13 and 37 (1:1). Toxicity of these compounds was evaluated by their ability to cause morphological changes in cells at different concentrations.
For orientation: Damage to the host cells serves as the signal in cytopathic effect assays.

A short description of series [2]: Toxicity: morphological changes in Hela cells. Type of series: cell-based. Particulars: human; Hela cells; average of triplicate determinations; read-out: IC50 Hela cell (concentration required to cause microscopically visible change or disruption in about 50% of the cell sheet). As to the method: as §1
(§2) ^b Concentration of the compound required to cause microsopically
(§3) visible change or disruption in about 50% of the cell sheet; and […]

The subject of another series is Hela cell. The experiment in a line: Toxicity: morphological changes in Hela cells. In kind it is cell-based. Conditions: in comparison with Ara-A 37. On the procedure:
as §1, §2, §3

For series [3], the system named is herpes simplex type 1 virus (HSV-1). The experiment in a line: Inhibition of cytopathogenicity of HSV-1 in Hela cell culture. Conditions: for IC50: read-out: IC50 HSV-1 (KOS). Type of series: cell-based. As to the method:
as §1

Series [4] relates to herpes simplex type 2 virus (HSV-2). The experiment in a line: Inhibition of cytopathogenicity of HSV-2 in Hela cell culture. Type of series: cell-based. Conditions: for IC50: read-out: IC50 HSV-2 (G). As to the method: as §1
Series [5] is described as follows: Partition coefficient (lipophilicity), 1-pentanol / phosphate buffer. Conditions: P = [Substrate]1-pentanol/[Substrate]H2O.
Method: The layers were separated, and their concentrations were determined by an UV spectrophotometer.
^a Partition coefficients were calculated as follows:
P = [Substrate]1pentanol /[Substrate]H.sbsb.2O.
Series [6] can be described thus: Solubility in H2O (phosphate buffer). Particulars: for water solubility (in words): from Table 2; for solubility in H2O: phosphate buffer 0.10M, 20 h, UV absorbance; for solubility at 20 h: 0.10 m phosphate buffer, aqueous buffer.
Method: Each compound (70 mg) listed in Table 2 was agitated in a 25-mL volumetric flask with phosphate buffer (0.10M, 5.0 mL) for 20 h. This solution was filtered from undissolved solid through a sintered glass funnel (4.0-5.5 mesh ASTM) and the concentration of the solution was determined by UV absorbance (Table 2).
Series [7] addresses T1, calf mucosal adenosine deaminase (EC 3.5.4.4) (Bos taurus, UniProt P56658).
T1 construct: calf mucosal adenosine deaminase; from tissue; host or cells: calf mucosa
T1 sequence (P56658 1-363): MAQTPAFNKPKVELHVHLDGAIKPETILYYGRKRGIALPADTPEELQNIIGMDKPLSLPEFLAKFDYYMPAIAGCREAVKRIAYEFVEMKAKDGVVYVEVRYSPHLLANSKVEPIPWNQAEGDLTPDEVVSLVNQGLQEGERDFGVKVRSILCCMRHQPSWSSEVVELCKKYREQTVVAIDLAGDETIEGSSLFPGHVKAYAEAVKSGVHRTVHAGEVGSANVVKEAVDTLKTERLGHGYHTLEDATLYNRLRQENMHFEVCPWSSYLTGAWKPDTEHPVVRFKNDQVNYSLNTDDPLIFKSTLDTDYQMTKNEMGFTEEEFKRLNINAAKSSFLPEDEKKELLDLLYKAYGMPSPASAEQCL
The experiment in a line: Deamination kinetics of compounds as substrates of adenosine deaminase. Type of series: biochemical. Particulars: for adenosine deaminase substrate / deamination by / resistance to adenosine deaminase: in words; for rel Vmax: relative, 37 = 1; for complex formation with adenosine deaminase: Table 1; for deamination by / resistance to adenosine deaminase: in vitro. An excerpt:
(§4) By following an established procedure [Ogilvie, K. K.; Nguyen-Ba, N.; Gillen, M. F.; Radatus, B. K.; Cheriyan, U. O.; Hanna, H. R.; Smith, K. O.; Galloway, K. S. Synthesis of A Purine Acyclonucleoside Series Having Pronounced Antiviral Activity. The Glyceropurines. Can. J. Chem. 1984, 62, 241-252.], we determined the rates of deamination of VI, 13, 37, 40, and 42 in the presence of calf mucosal adenosine deaminase (EC 3.5.4.4) in buffer solutions.

Series [8] has as its target T1, calf mucosal adenosine deaminase (EC 3.5.4.4). The experiment in a line: Competitive inhibition of adenosine deaminase. In kind it is biochemical. Particulars: for type of inhibition of adenosine deaminase / Ki: Ara-A 37 used as substrate; for Ki: Kaplan method.
Text: as §4

The subject of another series is acute type B hepatitis. Particulars: background; cited from earlier work.
For a further series, the system named is adenosine deaminase. Particulars: background; cited from earlier work.
A further series has as its system viral replication. Particulars: background; cited from earlier work.
The next series has as its system HSV-1, HSV-2 and VZV. The experiment in a line: Anti-herpes activity in Hela cell culture (all viruses of Table 3). In kind it is cell-based. Conditions: for effect on antiviral activity by mixing with compound 13: mixed with compound 13 (Table 3). As to the method: as §1
For series [9] the following is noted: background; cited from earlier work.
Where [10] appears, read: Human alphaherpesvirus 3, strain YS, Hela cell culture, average of triplicate determinations.
Where [11] appears, read: Human alphaherpesvirus 1, strain KOS, Hela cell culture, average of triplicate determinations.
Setting [12] is: Human alphaherpesvirus 2, strain G, Hela cell culture, average of triplicate determinations.

Values after ≈ are worked out from the molar mass of the structure shown. Like-named read-outs stand apart in the source and are kept apart here.

For orientation: IC50 means the point on the concentration scale where inhibition reaches its midpoint. Take `CCOP(=O)(O)CCOCn1cnc2c(N)ncnc21.N` [Compound 12, Ammonium Ethyl [2-[(Adenin-9-yl)methoxy]ethyl]phosphonate]: the “antiviral activity against VZV (in words)” value in [1] (Hela cell culture) was “exhibit antiviral activity”. Also, the IC50 in [1] (Human alphaherpesvirus 3, HeLa) came out at 25 µg/mL; in series [3] (Human alphaherpesvirus 1, HeLa) it was 11.3 µg/mL; in [4] (Human alphaherpesvirus 2, HeLa), 13.8 µg/mL. Besides, the CC50 in [2] amounted to 176 µg/mL. In addition, the “cellular toxicity (in words)” value in the series with Hela cell is “lower cellular toxicity”. For the same molecule, the “antiviral activity against HSV-1 (in words)” value in [3] (Hela cell culture) is recorded as “exhibit antiviral activity”. In addition, in series [4] (Hela cell culture), the “antiviral activity against HSV-2 (in words)” value was “exhibit antiviral activity”.
A word on the log P: it is the decadic logarithm of the partition coefficient of the neutral form, usually between octanol and water. As a reminder, the Ki is a dissociation constant, usually derived from enzyme kinetics or from competition with a known ligand. A higher Ki goes with a looser hold on the target. For the molecule `Nc1ncnc2c1ncn2COCCP(=O)(O)O` [Compound 13, 2-[(Adenin-9-yl)methoxy]ethylphosphonic Acid], the “antiviral activity against VZV (in words)” value in [1] (Hela cell culture) is “exhibit antiviral activity”. Besides, the IC50 in series [1] (setting [10]) worked out at 16 µg/mL (≈ 58.6 µM). In [5], the “log P” value was 0.07. Moreover, in [6], the “water solubility (in words)” value is “higher water solubility” and the “solubility in H2O” value turned out to be 13640 µg/mL (≈ 49900 µM). For the same molecule, the CC50 in [2] was 215 µg/mL (≈ 787 µM). Also, the “cellular toxicity (in words)” value in the series with Hela cell is “lower cellular toxicity”. For the same molecule, in [7], the adenosine deaminase substrate entry was “adenosine deaminase substrates” and the “rel Vmax” value is on record as 1.49 × 10^-6. In addition, the “Vmax compared with that of VI (times less)” value in series [7] (versus VI) was ~ 10^-4 times less. Further, in [3] (Hela cell culture), the “antiviral activity against HSV-1 (in words)” value is “exhibit antiviral activity”. Further, the IC50 in [3] (setting [11]) worked out at 3.98 µg/mL (≈ 14.6 µM). For the same molecule, in series [8], the “type of inhibition of adenosine deaminase” value is given as “competitive inhibition” and the Ki is 18.2 µM. The “inhibition of adenosine deaminase (in words)” value in series [8] (Table 1) was “inhibits adenosine deaminase”. Also, the “efficiency as inhibitor of adenosine deaminase versus acyclonucleoside VI” value in [8] (compared with VI) is reported as “acted more efficiently than acyclonucleoside VI”. Besides, the “antiviral activity against HSV-2 (in words)” value in series [4] (Hela cell culture) is on record as “exhibit antiviral activity”. For the same molecule, the IC50 in series [4] (setting [12]) is 5.86 µg/mL (≈ 21.5 µM).
As a reminder, the solubility is the dissolved amount per volume that the medium holds. Low readings indicate a poorly soluble substance, high ones a readily soluble substance. `Nc1ncnc2c1ncn2[C@@H]1O[C@H](CO)[C@@H](O)[C@@H]1O` [Compound 37, 9-(β-D-arabinofuranosyl)adenine, reference compound]: the IC50 is > 128 µg/mL in [1] (setting [10]), 10.8 µg/mL (≈ 40.4 µM) in series [3] (setting [11]) and > 128 µg/mL in series [4] (setting [12]). Also, the “potency in treating a patient having acute type B hepatitis” value in the series with acute type B hepatitis is listed as “potent”. Also, the “conversion in vivo to hypoxanthine (Ara-Hx) via deamination by adenosine deaminase” value in the series on adenosine deaminase is listed as “converted in vivo to hypoxanthine (Ara-Hx)”. Besides, in series [5], the “log P” value is on record as -0.47. The same molecule gave a solubility at 20 h in [6] of 400 µg/mL (≈ 1500 µM). Also, the “inhibition of viral replication” value in the series with viral replication is given as “can inhibit viral replication”. For the same molecule, the “effect on antiviral activity by mixing with compound 13” value in the series on HSV-1, HSV-2 and VZV is reported as “synergistic effect”. Moreover, the CC50 in series [2] amounted to 98.8 µg/mL (≈ 370 µM). For the same molecule, in series [7], the “complex formation with adenosine deaminase” value is on record as “can form a complex”. Also, the “rel Vmax” value in series [7] was 1. For the same molecule, the “lipophilicity (in words)” value in series [9] is reported as “poor lipophilicity”.
`Nc1ncnc2c1ncn2COCCP(=O)(O)O[C@H]1[C@H](O)[C@H](n2cnc3c(N)ncnc32)O[C@@H]1CO` [Compound 40, 9-(β-D-Arabinofuranosyl)adenine-3'-[[2-(Adenin-9-ylmethoxy)ethyl]phosphonate]]: the “antiviral activity against VZV (in words)” value in [1] (Hela cell culture) is given as “not active against VZV”. Further, the IC50 in series [1] (setting [10]) was > 128 µg/mL. The “log P” value in series [5] is given as -0.68. For the same molecule, in series [6], the “water solubility (in words)” value is listed as “higher water solubility” and the “solubility in H2O” value came to 2460 µg/mL (≈ 4710 µM). Also, the CC50 in series [2] was 346 µg/mL (≈ 662 µM). Moreover, the “cellular toxicity (in words)” value in the series with Hela cell was “lower cellular toxicity”. Moreover, in [7], the “deamination by / resistance to adenosine deaminase” value was “slow rate of deamination”, the adenosine deaminase substrate result is given as “a substrate of adenosine deaminase” and the “rel Vmax” value was 7.64 × 10^-2. In addition, the “Vmax less than that of Ara-A 37” value in [7] (versus Ara-A 37) is 92%. The “antiviral activity against HSV-1 (in words)” value in [3] (Hela cell culture) is reported as “exhibit antiviral activity”. For the same molecule, in [3] (setting [11]), the half-maximal inhibitory concentration (IC50) stood at 8.97 µg/mL (≈ 17.2 µM). For the same molecule, the “antiviral activity against HSV-2 (in words)” value in series [4] (Hela cell culture) is “exhibit antiviral activity”. Further, in series [4] (setting [12]), the IC50 is 16.3 µg/mL (≈ 31.2 µM).
In general, Km refers to the concentration of substrate that gives half-maximal velocity. For `COC(=O)C(C)NP(=O)(CCOCn1cnc2c(N)ncnc21)OC1C(CO)OC(n2cnc3c(N)ncnc32)C1O` [Compound 42, 9-(β-D-Arabinofuranosyl)adenine-3'-[(Methoxyalaninyl)[2-(adenin-9-ylmethoxy)ethyl]phosphonates]], the “antiviral activity against VZV (in words)” value in series [1] (Hela cell culture) was “exhibit antiviral activity”. The IC50 is 4.82 µg/mL (≈ 7.93 µM) in series [1] (setting [10]), 0.38 µg/mL (≈ 0.625 µM) in series [3] (setting [11]) and 0.88 µg/mL (≈ 1.45 µM) in [4] (setting [12]). For the same molecule, the “log P” value in series [5] is on record as 0.87. Besides, the solubility at 20 h in series [6] came to 8250 µg/mL (≈ 13600 µM). For the same molecule, in series [6], the “water solubility (in words)” value was “higher water solubility”. Besides, the “antiviral activity (in words)” value in the series with HSV-1, HSV-2 and VZV (Table 3) is on record as “superior antiviral activity”. Moreover, the CC50 in series [2] came to 215 µg/mL (≈ 355 µM). Further, in the series on Hela cell, the “cellular toxicity (in words)” value is listed as “lower cellular toxicity”. The Km in series [7] (adenosine deaminase substrate, buffer solutions) is > 1500 µM. The “deamination by / resistance to adenosine deaminase” value in series [7] is listed as “completely resisted deamination”. The “antiviral activity against HSV-1 (in words)” value in series [3] (Hela cell culture) is “exhibit antiviral activity”. Moreover, the “antiviral activity against HSV-2 (in words)” value in series [4] (Hela cell culture) is listed as “exhibit antiviral activity”.
Turning to `Nc1ncnc2c1ncn2COCCO` [VI, Acyclic adenosine, reference compound], the IC50 in series [1] (setting [10]) is 6.5 µg/mL (≈ 31.1 µM). Further, in series [5], the “log P” value came out at 0.98. In [6], the “solubility in H2O” value came out at 1950 µg/mL (≈ 9320 µM). Further, in the series on viral replication, the “inhibition of viral replication” value was “can inhibit viral replication”. Further, in the series with HSV-1, HSV-2 and VZV, the “effect on antiviral activity by mixing with compound 13” value was “synergistic effect”. In addition, the CC50 in series [2] stood at 266 µg/mL (≈ 1270 µM). In series [7], the “complex formation with adenosine deaminase” value is “can form a complex”, the adenosine deaminase substrate entry is listed as “adenosine deaminase substrates” and the “rel Vmax” value was 1.52 × 10^-2. The IC50 in series [3] (setting [11]) is 4.43 µg/mL (≈ 21.2 µM). Also, in [8], the “type of inhibition of adenosine deaminase” value is recorded as “competitive inhibition” and the affinity corresponds to a Ki of 142 µM. Also, in series [4] (setting [12]), the IC50 worked out at 8.26 µg/mL (≈ 39.5 µM).
